From US8022099B2, “N-benzyl pyrrolidine derivatives” (Hoffmann-La Roche Inc., priority 2008, dated 2011)

Biological target: T1, human NK3 receptor (Homo sapiens, UniProt P29371)
T1 construct: expressed in transfected cells; host or cells: HEK293 cells (transient expression), membrane preparation
T1 sequence (P29371 1-465): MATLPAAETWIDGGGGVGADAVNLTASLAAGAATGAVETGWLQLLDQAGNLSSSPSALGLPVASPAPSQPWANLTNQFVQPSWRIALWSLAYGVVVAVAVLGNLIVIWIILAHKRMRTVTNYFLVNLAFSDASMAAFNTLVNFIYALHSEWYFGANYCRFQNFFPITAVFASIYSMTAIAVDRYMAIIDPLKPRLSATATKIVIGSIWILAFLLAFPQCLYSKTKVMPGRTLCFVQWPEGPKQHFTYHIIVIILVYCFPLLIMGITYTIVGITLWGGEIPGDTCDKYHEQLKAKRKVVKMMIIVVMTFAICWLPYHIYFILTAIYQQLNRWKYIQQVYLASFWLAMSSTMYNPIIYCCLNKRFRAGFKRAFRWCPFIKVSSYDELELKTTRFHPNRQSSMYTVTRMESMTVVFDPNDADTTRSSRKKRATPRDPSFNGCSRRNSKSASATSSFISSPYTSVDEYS
Test: [3H]SR142801 competition binding assay
Conditions: hNK3 receptor binding, [3H]SR142801, membranes from HEK293 cells transiently expressing recombinant human NK3 receptor
Procedure, shortened: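 Membranes from HEK293 cells transiently expressing human NK3 were incubated 75 min at RT with [3H]SR142801 at its KD and inhibitor (0.0003-10 μM) in Tris-HCl pH 7.4/MnCl2/phosphoramidon/BSA. Nonspecific binding used 10 μM SB222200. Ki from Hill-fitted IC50 via Cheng-Prusoff, duplicate determinations.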

SMILES	Ki [nM]
CN(Cc1ccc(C(F)(F)F)c(F)c1)[C@H]1CN(C(=O)N2CCN(S(C)(=O)=O)CC2)C[C@@H]1c1ccccc1 (racemic) [Example 17, {(3RS,4SR)-3-[(3-Fluoro-4-trifluoromethyl-benzyl)-methyl-amino]-4-phenyl-pyrrolidin-1-yl}-(4-methanesulfonyl-piperazin-1-yl)-methanone]	90.9
CN(Cc1ccc2cc[nH]c2c1)[C@H]1CN(C(=O)N2CCN(S(C)(=O)=O)CC2)C[C@@H]1c1ccc(Cl)c(Cl)c1 (racemic) [Example 47, {(3SR,4RS)-3-(3,4-Dichloro-phenyl)-4-[(1H-indol-6-ylmethyl)-methyl-amino]-pyrrolidin-1-yl}-(4-methanesulfonyl-piperazin-1-yl)-methanone]	69.1
CN(C)CCN1CCN(C(=O)N2C[C@H](c3ccc(Cl)c(Cl)c3)[C@@H](N(C)Cc3ccc(C(F)(F)F)c(F)c3)C2)CC1 (racemic) [Example 75, {(3SR,4RS)-3-(3,4-Dichloro-phenyl)-4-[(3-fluoro-4-trifluoromethyl-benzyl)-methyl-amino]-pyrrolidin-1-yl}-[4-(2-dimethylamino-ethyl)-piperazin-1-yl]-methanone]	4.6
CN(Cc1ccc(C(F)(F)F)c(F)c1)[C@H]1CN(C(=O)N2CCCN(S(C)(=O)=O)CC2)C[C@@H]1c1ccc(Cl)c(F)c1 (racemic) [Example 82, {(3SR,4RS)-3-(4-Chloro-3-fluoro-phenyl)-4-[(3-fluoro-4-trifluoromethyl-benzyl)-methyl-amino]-pyrrolidin-1-yl}-(4-methanesulfonyl-[1,4]diazepan-1-yl)-methanone]	39.7
CN(Cc1ccc(C(F)(F)F)c(F)c1)[C@H]1CN(C(=O)N2CCN(c3ccc(C#N)cc3)CC2)C[C@@H]1c1ccc(Cl)c(Cl)c1 (racemic) [Example 72, 4-(4-{(3SR,4RS)-3-(3,4-Dichloro-phenyl)-4-[(3-fluoro-4-trifluoromethyl-benzyl)-methyl-amino]-pyrrolidine-1-carbonyl}-piperazin-1-yl)-benzonitrile]	2.7
CN(Cc1ccc(C#N)cc1)[C@H]1CN(C(=O)N2CCN(S(C)(=O)=O)CC2)C[C@@H]1c1ccc(Cl)cc1 (racemic) [Example 26, 4-({[(3RS,4SR)-4-(4-Chloro-phenyl)-1-(4-methanesulfonyl-piperazine-1-carbonyl)-pyrrolidin-3-yl]-methyl-amino}-methyl)-benzonitrile]	82.5
CN(Cc1ccc(C(F)(F)F)c(F)c1)[C@H]1CN(C(=O)CCCCN2CCNCC2)C[C@@H]1c1ccc(Cl)c(Cl)c1 (racemic) [Example 88, 1-{(3SR,4RS)-3-(3,4-Dichloro-phenyl)-4-[(3-fluoro-4-trifluoromethyl-benzyl)-methyl-amino]-pyrrolidin-1-yl}-5-piperazin-1-yl-pentan-1-one]	24.7
CN(C)CCCN1CCN(C(=O)N2C[C@H](c3ccc(Cl)c(Cl)c3)[C@@H](N(C)Cc3ccc(C(F)(F)F)c(F)c3)C2)CC1 (racemic) [Example 74, {(3SR,4RS)-3-(3,4-Dichloro-phenyl)-4-[(3-fluoro-4-trifluoromethyl-benzyl)-methyl-amino]-pyrrolidin-1-yl}-[4-(3-dimethylamino-propyl)-piperazin-1-yl]-methanone]	5.4
CN(Cc1ccc(C(F)(F)F)c(F)c1)[C@H]1CN(C(=O)N2CCN(c3ccncc3)CC2)C[C@@H]1c1ccc(Cl)c(Cl)c1 (racemic) [Example 68, {(3SR,4RS)-3-(3,4-Dichloro-phenyl)-4-[(3-fluoro-4-trifluoromethyl-benzyl)-methyl-amino]-pyrrolidin-1-yl}-(4-pyridin-4-yl-piperazin-1-yl)-methanone]	5.9
CN(Cc1ccc(C(F)(F)F)c(F)c1)[C@H]1CN(C(=O)N2CCN(CCC#N)CC2)C[C@@H]1c1ccc(Cl)c(Cl)c1 (racemic) [Example 79, 3-(4-{(3SR,4RS)-3-(3,4-Dichloro-phenyl)-4-[(3-fluoro-4-trifluoromethyl-benzyl)-methyl-amino]-pyrrolidine-1-carbonyl}-piperazin-1-yl)-propionitrile]	1.9
C[C@@H]1CN(C(=O)N2C[C@H](c3ccc(Cl)c(Cl)c3)[C@@H](N(C)Cc3ccc(C(F)(F)F)c(F)c3)C2)CCN1S(C)(=O)=O (mixture of isomers) [Example 60, {(3SR,4RS)-3-(3,4-Dichloro-phenyl)-4-[(3-fluoro-4-trifluoromethyl-benzyl)-methyl-amino]-pyrrolidin-1-yl}-((R)-4-methanesulfonyl-3-methyl-piperazin-1-yl)-methanone]	3.6
CC(=O)N1CCN(C(=O)N2C[C@H](c3ccc(Cl)c(Cl)c3)[C@@H](N(C)Cc3ccc(C(F)(F)F)c(F)c3)C2)CC1 (racemic) [Example 51, 1-(4-{(3SR,4RS)-3-(3,4-Dichloro-phenyl)-4-[(3-fluoro-4-trifluoromethyl-benzyl)-methyl-amino]-pyrrolidine-1-carbonyl}-piperazin-1-yl)-ethanone]	17.3

The remaining lines, values ahead:

Ki [nM]	SMILES
13	CN(Cc1ccc(C(F)(F)F)c(F)c1)[C@H]1CN(C(=O)CN2CCN(S(C)(=O)=O)CC2)C[C@@H]1c1ccc(Cl)c(Cl)c1 (racemic) [Example 115, 1-{(3SR,4RS)-3-(3,4-Dichloro-phenyl)-4-[(3-fluoro-4-trifluoromethyl-benzyl)-methyl-amino]-pyrrolidin-1-yl}-2-(4-methanesulfonyl-piperazin-1-yl)-ethanone]
59.7	C[C@@H]1CN(CC(=O)N2C[C@H](c3ccc(Cl)c(Cl)c3)[C@@H](N(C)Cc3ccc(C(F)(F)F)c(F)c3)C2)CCN1 (mixture of isomers) [Example 141, 1-{(3SR,4RS)-3-(3,4-Dichloro-phenyl)-4-[(3-fluoro-4-trifluoromethyl-benzyl)-methyl-amino]-pyrrolidin-1-yl}-2-((R)-3-methyl-piperazin-1-yl)-ethanone]
26.9	CN1CCN(CCCCC(=O)N2C[C@H](c3ccc(Cl)c(Cl)c3)[C@@H](N(C)Cc3ccc(C(F)(F)F)c(F)c3)C2)CC1 (racemic) [Example 89, 1-{(3SR,4RS)-3-(3,4-Dichloro-phenyl)-4-[(3-fluoro-4-trifluoromethyl-benzyl)-methyl-amino]-pyrrolidin-1-yl}-5-(4-methyl-piperazin-1-yl)-pentan-1-one]
47.9	C[C@H]1CN(CC(=O)N2C[C@H](c3ccc(Cl)c(Cl)c3)[C@@H](N(C)Cc3ccc(C(F)(F)F)c(F)c3)C2)CCN1 (mixture of isomers) [Example 140, 1-{(3SR,4RS)-3-(3,4-Dichloro-phenyl)-4-[(3-fluoro-4-trifluoromethyl-benzyl)-methyl-amino]-pyrrolidin-1-yl}-2-((S)-3-methyl-piperazin-1-yl)-ethanone]
46.6	CN(Cc1ccc(C(F)(F)F)c(F)c1)[C@H]1CN(C(=O)CCCCN2CCCC2)C[C@@H]1c1ccc(Cl)c(Cl)c1 (racemic) [Example 92, 1-{(3SR,4RS)-3-(3,4-Dichloro-phenyl)-4-[(3-fluoro-4-trifluoromethyl-benzyl)-methyl-amino]-pyrrolidin-1-yl}-5-pyrrolidin-1-yl-pentan-1-one]
19.3	CN(C)CCN1CCN(CC(=O)N2C[C@H](c3ccc(Cl)c(Cl)c3)[C@@H](N(C)Cc3ccc(C(F)(F)F)c(F)c3)C2)CC1 (racemic) [Example 117, 1-{(3SR,4RS)-3-(3,4-Dichloro-phenyl)-4-[(3-fluoro-4-trifluoromethyl-benzyl)-methyl-amino]-pyrrolidin-1-yl}-2-[4-(2-dimethylamino-ethyl)-piperazin-1-yl]-ethanone]
8.7	CC(=O)NC1CCN(CC(=O)N2C[C@H](c3ccc(Cl)c(Cl)c3)[C@@H](N(C)Cc3ccc(C(F)(F)F)c(F)c3)C2)CC1 (racemic) [Example 137, N-[1-(2-{(3SR,4RS)-3-(3,4-Dichloro-phenyl)-4-[(3-fluoro-4-trifluoromethyl-benzyl)-methyl-amino]-pyrrolidin-1-yl}-2-oxo-ethyl)-piperidin-4-yl]-acetamide]
52.7	CN(Cc1ccc(C(F)(F)F)c(F)c1)[C@H]1CN(C(=O)CCCCC(N)=O)C[C@@H]1c1ccc(Cl)c(Cl)c1 (racemic) [Example 98, 6-{(3SR,4RS)-3-(3,4-Dichloro-phenyl)-4-[(3-fluoro-4-trifluoromethyl-benzyl)-methyl-amino]-pyrrolidin-1-yl}-6-oxo-hexanoic acid amide]
80.5	CN(C)CCCN(C)CC(=O)N1C[C@H](c2ccc(Cl)c(Cl)c2)[C@@H](N(C)Cc2ccc(C(F)(F)F)c(F)c2)C1 (racemic) [Example 126, 1-{(3SR,4RS)-3-(3,4-Dichloro-phenyl)-4-[(3-fluoro-4-trifluoromethyl-benzyl)-methyl-amino]-pyrrolidin-1-yl}-2-[(3-dimethylamino-propyl)-methyl-amino]-ethanone]
23.2	CC(=O)N[C@H]1CCN(CC(=O)N2C[C@H](c3ccc(Cl)c(Cl)c3)[C@@H](N(C)Cc3ccc(C(F)(F)F)c(F)c3)C2)C1 (mixture of isomers) [Example 133, N-[(S)-1-(2-{(3SR,4RS)-3-(3,4-Dichloro-phenyl)-4-[(3-fluoro-4-trifluoromethyl-benzyl)-methyl-amino]-pyrrolidin-1-yl}-2-oxo-ethyl)-pyrrolidin-3-yl]-acetamide]
